Assay results from patent US20160166556A1, “METHODS OF TREATING PULMONARY HYPERTENSION” (Gilead Sciences, Inc., priority 2014, published 2016).

Tested on: ASK1 pathway (p38 phosphorylation) in the rat RV
Test: Auranofin model of oxidative stress-induced ASK1 activation in the rat right ventricle (phospho-p38 Western blot)
Type: in vivo, Sprague-Dawley rats
Description: IP90 was used as a loading control.
In this study, the auranofin model of oxidative stress-induced ASK1 activation was used to determine the effects of ASK1 inhibitor in preventing or inhibiting oxidative stress-induced activation of the ASK1 pathway in the rat RV. ASK1 is normally bound and repressed by the thiol-containing antioxidant protein thioredoxin 1 (Trx1). […] When administered in vivo, auranofin results in ASK1-mediated phosphorylation of p38MAPK, which in turn promotes induction of cytokine/chemokine gene expression.
Rats were then challenged with a single intraperitoneal (ip) injection of auranofin at 30 mg/kg to induce oxidative stress. The levels of phosphorylated p38 in RV lysates were evaluated by Western blot analysis and normalized to IP90.

Structure (SMILES)	auranofin-induced p38 phosphorylation in RV (single oral dose 0.3, 1, 3 or 10 mg/kg, then auranofin 30 mg/kg ip)	normalized level of phosphorylated p38 in RV (p-p38/IP90) (auranofin 30 mg/kg ip alone, mean±SEM, vehicle group 1.0±0.1)
Cc1cc(F)c(C(=O)Nc2cccc(-c3nncn3C(C)C)n2)cc1-n1cnc(C2CC2)c1 [Compound 3, 5-(4-cyclopropyl-1H-imidazol-1-yl)-2-fluoro-N-(6-(4-isopropyl-4H-1,2,4-triazol-3-yl)pyridin-2-yl)-4-methylbenzamide]	dose-dependent reduction	
CC[PH](CC)(CC)[Au][S][C@@H]1O[C@H](COC(C)=O)[C@@H](OC(C)=O)[C@H](OC(C)=O)[C@H]1OC(C)=O [auranofin, 2,3,4,6-tetra-O-acetyl-1-thio-β-d-glucopyranosato-S-(triethylphosphine) gold]		2.0±0.2
